# Measurements reported in patent US20260364124A1, “ANTI-C. DIFFICILE SMALL MOLECULE METABOLITES FROM DIET AND GUT MICROBIOME” (The Children's Medical Center Corporation, priority 2023, published 2026).
# Entries after “also recorded” stand apart in the source; their conditions may differ.
# Tests used:
# B. uniformis AgshD = experiment: In vitro aglycone liberation by B. uniformis gshD deletion mutant (LC-MS); parameters: species or system Bacteroides uniformis ATCC 8492; details: role: substrate; B. uniformis AgshD (FIGS. 5A, 5B)
# Experimental: FIGS. 5A and 5B show microbiome-mediated polyphenol aglycone liberation. […] Step 2: Spent media was filter-sterilized. Step 3: C. difficile was grown in spent media from either vehicle or polydatin (top).
# Generation of Bacteroides gene deletion mutants: Clean deletion mutants were created by allelic replacement whereby Bacteroides uniformis ATCC 8492 gshD (BACUNI_00919)was deleted. A modified pKNOCK-bla-ermGb suicide vector, pKNOCK-bla-ermGb_pheS*, that was previously engineered with a counter-selection system mediated by a variant phenylalanyl-tRNA synthetase (PheSA303G), lethal in the presence of 4-chloro-phenylalanine was leveraged. To generate deletion constructs, 1 kb regions flanking the genomic region-of-interest were amplified by PCR (Platinum SuperFi PCR Master Mix), purified, and cloned into the pKNOCK-bla-ermGb_pheS* plasmid in a three-piece ligation reaction. To mobilize resulting plasmids into Bacteroides, a triparental mating strategy was implemented. Overnight cultures of Bacteroides grown in BSG were diluted 50-fold into fresh pre-reduced BSG and grown to early exponential phase (OD600 ~0.1). The recipient strain was centrifuged at 4,000 rpm for 5 minutes and resuspended in 200 μL of 1× PBS. One-day-old E. coliDH5α lambda pir donor strain and E. coliDH5α helper strain with pRK 231 were scrapped from LB agar plates into 200 μL of 1× PBS. […]
# C. difficile isolates = experiment: Phytochemical microbial killing assay, diverse C. difficile isolates; format: cell-based, Clostridioides difficile
# Experimental: FIG. 3B provides a heatmap of growth of 20 Clostridioides difficile isolates in the absence of presence of the polyphenolic glycoside polydatin or the Bacteroides liberated aglycone resveratrol. […] Growth induction or inhibition is measured as the ratio of growth in media (AUC) supplemented with glucose and 150 μM polydatin or resveratrol versus growth in media (AUC) supplemented with glucose and vehicle. Value>1 is representative of enhanced growth in compound and value <1 is representative of inhibition of growth in compound.
# Bacterial isolates were grown in vitro in media plus compound. Killing was measured by bacterial culture optical density (proxy for amount of bacteria in a culture).
# Phytochemical microbial killing assays: All gut pathogen isolates were grown on brain-heart-infusion supplemented with hemin (50 mg/L) and vitamin K1 (0.25 mg/L) (BHIS) agar plates or in basal media (BSG; proteose peptone (20 g/L), yeast (5 g/L), NaCl (5 g/L), glucose (5 g/L), potassium phosphate dibasic (5 g/L), cysteine (0.5 g/L), hemin (50 mg/L), and vitamin K1 (0.25 mg/L). Isolates were recovered on and grown in pre-reduced media in a Coy anaerobic chamber (Coy Labs). To determine the fitness effects of phloridzin hydrate (TCI), phloretin (TCI), polydatin (TCI), and resveratrol (TCI) on enteric pathogen fitness, each pathogen isolate was recovered on a BHIS agar plate and incubated anaerobically at 37 °C for 48 h. A starter culture (1 mL) of BSG was inoculated with C. difficile and grown for 15 h. This starter culture was then used to inoculate a BSG sub-culture (1 mL) at a final dilution of 1:10. This sub-culture was grown for 3 h to an OD600~0.5 before being used to inoculate experimental cultures at a final dilution of 1:50. The experimental media consisted of a modified YCFA media (mYCFA; casitone (2.5 g/L), yeast extract (0.625 g/L), cysteine (0.5 g/L), magnesium sulfate heptahydrate (f.c. 365 μM), calcium chloride dihydrate (f.c. 610 μM), sodium bicarbonate (4 g/L), dipotassium phosphate (0.45 g/L), monopotassium phosphate (0.45 g/L), sodium chloride (0.9 g/L), sodium acetate (2.71 g/L), Hemin (50 mg/L), Vitamin K1 (0.25 mg/L), ferrous sulfate (4 μg/mL), ATCC vitamin mix (1% v/v)) supplemented with glucose (15 mM, Sigma) plus each compound (150 μM) or glucose (15 mM, Sigma) plus DMSO (0.15%, Sigma). Bacterial growth was monitored by measuring the optical density at 600 nm (OD600) of each culture in a 384 well plate with an Epoch2 spectrophotometer (BioTek Instruments) and MicroPlate stacker (Agilent BioTek) for 24 hours.
structure (smiles),measurement,setting,value
OC[C@H]1O[C@@H](Oc2cc(O)cc(/C=C/c3ccc(O)cc3)c2)[C@H](O)[C@@H](O)[C@@H]1O [polydatin],liberation of resveratrol from polydatin by gshD mutant,B. uniformis AgshD,lacking the ability to metabolize polydatin; also recorded: ablated in B. uniformis AgshD
same,growth inhibition of Clostridioides difficile,"C. difficile isolates; 150 μM, 20 C. difficile isolates, growth ratio (AUC) vs vehicle (FIG. 3B)",did not; also recorded: but not its parent glycoside polydatin
same,killing / growth inhibition of diverse C. difficile isolates,"C. difficile isolates; in vitro, media plus compound, culture optical density (FIG. 4)",did not
